From US20230391760A1, “HETEROCYCLIC GLP-1 AGONISTS” (Gasherbrum Bio, Inc., priority 2020, published 2023)

Target: GLP-1 Receptor (Homo sapiens, UniProt P43220)
Assay: GLP-1R agonist cAMP stimulation assay (HEK293/GLP1R/CRE-LUC cells, cAMP dynamic 2 Kit)
Assay type: cell-based
Conditions: HEK293/CRE-Luc cell line stably expressing the GLP-1 Receptor, 30 min at 37° C.
Outline: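 cAMP measured by HTRF competition (d2-labelled cAMP with cryptate antibody, 1 h, room temperature, protected from light). Before that, GLP1R/CRE-Luc HEK293 cells (1000/well) were exposed for 30 min at 37 °C to half-log compound dilutions in DPBS containing IBMX 0.5 mM and BSA 0.1%.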

GLP-1 Receptor, sequence (P43220 24-463, species assumed): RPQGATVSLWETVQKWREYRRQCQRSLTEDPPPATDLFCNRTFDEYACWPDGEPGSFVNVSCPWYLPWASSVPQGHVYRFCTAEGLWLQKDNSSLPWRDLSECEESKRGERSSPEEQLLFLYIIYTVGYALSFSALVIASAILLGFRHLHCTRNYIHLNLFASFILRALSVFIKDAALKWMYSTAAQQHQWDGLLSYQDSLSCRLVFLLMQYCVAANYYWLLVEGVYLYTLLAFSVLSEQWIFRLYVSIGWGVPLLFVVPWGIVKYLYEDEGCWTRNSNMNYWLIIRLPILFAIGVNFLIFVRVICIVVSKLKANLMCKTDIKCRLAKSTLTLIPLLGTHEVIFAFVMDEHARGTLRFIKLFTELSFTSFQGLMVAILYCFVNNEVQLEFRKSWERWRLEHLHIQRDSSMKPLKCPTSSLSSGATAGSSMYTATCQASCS

| SMILES | EC50 [nM] |
| --- | --- |
| Fc1cc(Cl)ccc1COc1cccc(C2CCN(Cc3nc4cc(-c5nnc(C(F)(F)F)[nH]5)cnc4n3C[C@@H]3CCO3)CC2F)n1 (stereo partly drawn) [Compound 500a, 2-[(4-chloro-2-fluorophenyl)methoxy]-6-[(3,4-trans)-3-fluoro-1-[(3-{[(2S)-oxetan-2-yl]methyl}-6-[5-(trifluoromethyl)-4H-1,2,4-triazol-3-yl]-3H-imidazo[4,5-b]pyridin-2-yl)methyl]piperidin-4-yl]pyridine] | 0.078 |
| Fc1cc(Cl)ccc1COc1ccc(F)c(N2CCN(Cc3nc4cc(-c5nnc(C(F)(F)F)[nH]5)ncc4n3C[C@@H]3CCO3)CC2)n1 [Compound 501a, 1-{6-[(4-chloro-2-fluorophenyl)methoxy]-3-fluoropyridin-2-yl}-4-[(3-{[(2S)-oxetan-2-yl]methyl}-6-[5-(trifluoromethyl)-4H-1,2,4-triazol-3-yl]-3H-imidazo[4,5-c]pyridin-2-yl)methyl]piperazine] | 0.038 |
| Fc1cc(Cl)ccc1COc1ccc(F)c(N2CCN(Cc3nc4cc(-c5nnc(C(F)(F)F)[nH]5)nnc4n3C[C@@H]3CCO3)CC2)n1 [Compound 502a, 1-{6-[(4-chloro-2-fluorophenyl)methoxy]-3-fluoropyridin-2-yl}-4-[(7-{[(2S)-oxetan-2-yl]methyl}-3-[5-(trifluoromethyl)-4H-1,2,4-triazol-3-yl]-7H-imidazo[4,5-c]pyridazin-6-yl)methyl]piperazine] | 0.092 |
| N#Cc1ccc(COc2ccc(F)c(N3CCN(Cc4nc5cc(-c6nnc(C(F)(F)F)[nH]6)nnc5n4C[C@@H]4CCO4)CC3)n2)c(F)c1 [Compound 503a, 3-fluoro-4-{[(5-fluoro-6-{4-[(7-{[(2S)-oxetan-2-yl]methyl}-3-[5-(trifluoromethyl)-4H-1,2,4-triazol-3-yl]-7H-imidazo[4,5-c]pyridazin-6-yl)methyl]piperazin-1-yl}pyridin-2-yl)oxy]methyl}benzonitrile] | 0.078 |
| Fc1cc(Cl)ccc1COc1nc(C2CCN(Cc3nc4cc(-c5nnc(C(F)(F)F)[nH]5)cnc4n3C[C@@H]3CCO3)CC2)ncc1F [Compound 504a, 4-[(4-chloro-2-fluorophenyl)methoxy]-5-fluoro-2-{1-[(3-{[(2S)-oxetan-2-yl]methyl}-6-[5-(trifluoromethyl)-4H-1,2,4-triazol-3-yl]-3H-imidazo[4,5-b]pyridin-2-yl)methyl]piperidin-4-yl}pyrimidine] | 0.092 |
| Fc1cc(Cl)ccc1COc1nccc(C2CCN(Cc3nc4cc(-c5nnc(C(F)(F)F)[nH]5)ncc4n3C[C@@H]3CCO3)CC2)n1 [Compound 505a, 2-[(4-chloro-2-fluorophenyl)methoxy]-4-{1-[(3-{[(2S)-oxetan-2-yl]methyl}-6-[5-(trifluoromethyl)-4H-1,2,4-triazol-3-yl]-3H-imidazo[4,5-c]pyridin-2-yl)methyl]piperidin-4-yl}pyrimidine] | 0.045 |
| C[C@H]1CN(c2ccc(F)c(OCc3ccc(C#N)cc3F)c2)CCN1Cc1nc2cc(-c3nnc(C(F)(F)F)[nH]3)ncc2n1C[C@@H]1CCO1 [Compound 506a, 3-fluoro-4-({2-fluoro-5-[(3S)-3-methyl-4-[(3-{[(2S)-oxetan-2-yl]methyl}-6-[5-(trifluoromethyl)-4H-1,2,4-triazol-3-yl]-3H-imidazo[4,5-c]pyridin-2-yl)methyl]piperazin-1-yl]phenoxy}methyl)benzonitrile] | 0.076 |
| N#Cc1ccc(COc2nccc(C3CCN(Cc4nc5cc(-c6nnc(C(F)(F)F)[nH]6)ncc5n4C[C@@H]4CCO4)CC3)n2)c(F)c1 [Compound 507a, 3-fluoro-4-{[(4-{1-[(3-{[(2S)-oxetan-2-yl]methyl}-6-[5-(trifluoromethyl)-4H-1,2,4-triazol-3-yl]-3H-imidazo[4,5-c]pyridin-2-yl)methyl]piperidin-4-yl}pyrimidin-2-yl)oxy]methyl}benzonitrile] | 0.068 |
| Fc1cc(Cl)ccc1COc1nccc(C2CCN(Cc3nc4cc(-c5nnc(C(F)(F)F)[nH]5)nnc4n3C[C@@H]3CCO3)CC2)n1 [Compound 508a, 2-[(4-chloro-2-fluorophenyl)methoxy]-4-{1-[(7-{[(2S)-oxetan-2-yl]methyl}-3-[5-(trifluoromethyl)-4H-1,2,4-triazol-3-yl]-7H-imidazo[4,5-c]pyridazin-6-yl)methyl]piperidin-4-yl}pyrimidine] | 0.42 |
| N#Cc1ccc(COc2nc(C3CCN(Cc4nc5cc(-c6nnc(C(F)(F)F)[nH]6)ncc5n4C[C@@H]4CCO4)CC3)ncc2F)c(F)c1 [Compound 509a, 3-fluoro-4-{[(5-fluoro-2-{1-[(3-{[(2S)-oxetan-2-yl]methyl}-6-[5-(trifluoromethyl)-4H-1,2,4-triazol-3-yl]-3H-imidazo[4,5-c]pyridin-2-yl)methyl]piperidin-4-yl}pyrimidin-4-yl)oxy]methyl}benzonitrile] | 0.074 |
| Fc1cc(Cl)ccc1COc1nc(C2CCN(Cc3nc4cc(-c5nnc(C(F)(F)F)[nH]5)nnc4n3C[C@@H]3CCO3)CC2)ncc1F [Compound 510a, 4-[(4-chloro-2-fluorophenyl)methoxy]-5-fluoro-2-{1-[(7-{[(2S)-oxetan-2-yl]methyl}-3-[5-(trifluoromethyl)-4H-1,2,4-triazol-3-yl]-7H-imidazo[4,5-c]pyridazin-6-yl)methyl]piperidin-4-yl}pyrimidine] | 0.16 |

Continued, values first:

| EC50 [nM] | SMILES |
| --- | --- |
| 0.079 | Fc1cc(Cl)ccc1COc1nc(N2CCN(Cc3nc4cc(-c5nnc(C(F)(F)F)[nH]5)cnc4n3C[C@@H]3CCO3)CC2)ncc1F [Compound 511a, 4-[(4-chloro-2-fluorophenyl)methoxy]-5-fluoro-2-{4-[(3-{[(2S)-oxetan-2-yl]methyl}-6-[5-(trifluoromethyl)-4H-1,2,4-triazol-3-yl]-3H-imidazo[4,5-b]pyridin-2-yl)methyl]piperazin-1-yl}pyrimidine] |
| 0.14 | C[C@H]1CN(c2ncc(F)c(OCc3ccc(Cl)cc3F)n2)CCN1Cc1nc2cc(-c3nnc(C(F)(F)F)[nH]3)nnc2n1C[C@@H]1CCO1 [Compound 512a, 4-[(4-chloro-2-fluorophenyl)methoxy]-5-fluoro-2-[(3S)-3-methyl-4-[(7-{[(2S)-oxetan-2-yl]methyl}-3-[5-(trifluoromethyl)-4H-1,2,4-triazol-3-yl]-7H-imidazo[4,5-c]pyridazin-6-yl)methyl]piperazin-1-yl]pyrimidine] |
| 0.064 | Fc1cc(Cl)ccc1COc1ccc(F)c(N2CCN(Cc3nc4cc(-c5nnc(C(F)(F)F)[nH]5)cnc4n3C[C@@H]3CCO3)CC2)n1 [Compound 513a, 1-{6-[(4-chloro-2-fluorophenyl)methoxy]-3-fluoropyridin-2-yl}-4-[(3-{[(2S)-oxetan-2-yl]methyl}-6-[5-(trifluoromethyl)-4H-1,2,4-triazol-3-yl]-3H-imidazo[4,5-b]pyridin-2-yl)methyl]piperazine] |
| 0.071 | C[C@H]1CN(c2nc(OCc3ccc(Cl)cc3F)ccc2F)CCN1Cc1nc2cc(-c3nnc(C(F)(F)F)[nH]3)nnc2n1C[C@@H]1CCO1 [Compound 514a, (2S)-4-{6-[(4-chloro-2-fluorophenyl)methoxy]-3-fluoropyridin-2-yl}-2-methyl-1-[(7-{[(2S)-oxetan-2-yl]methyl}-3-[5-(trifluoromethyl)-4H-1,2,4-triazol-3-yl]-7H-imidazo[4,5-c]pyridazin-6-yl)methyl]piperazine] |
| 0.057 | Fc1cc(Cl)ccc1COc1nc(C2CCN(Cc3nc4cc(-c5nnc(C(F)(F)F)[nH]5)ncc4n3C[C@@H]3CCO3)CC2F)ccc1F (stereo partly drawn) [Compound 515a, 2-[(4-chloro-2-fluorophenyl)methoxy]-3-fluoro-6-[(3,4-trans)-3-fluoro-1-[(3-{[(2S)-oxetan-2-yl]methyl}-6-[5-(trifluoromethyl)-4H-1,2,4-triazol-3-yl]-3H-imidazo[4,5-c]pyridin-2-yl)methyl]piperidin-4-yl]pyridine] |
| 0.018 | Fc1cc(Cl)ccc1COc1nc(N2CCN(Cc3nc4cc(-c5nnc(C(F)(F)F)[nH]5)cnc4n3C[C@@H]3CCO3)CC2)ccc1F [Compound 516a, 1-{6-[(4-chloro-2-fluorophenyl)methoxy]-5-fluoropyridin-2-yl}-4-[(3-{[(2S)-oxetan-2-yl]methyl}-6-[5-(trifluoromethyl)-4H-1,2,4-triazol-3-yl]-3H-imidazo[4,5-b]pyridin-2-yl)methyl]piperazine] |
| 0.043 | N#Cc1ccc(COc2nc(C3CCN(Cc4nc5cc(-c6nnc(C(F)(F)F)[nH]6)nnc5n4C[C@@H]4CCO4)CC3)ccc2F)c(F)c1 [Compound 517a, 3-fluoro-4-{[(3-fluoro-6-{1-[(7-{[(2S)-oxetan-2-yl]methyl}-3-[5-(trifluoromethyl)-4H-1,2,4-triazol-3-yl]-7H-imidazo[4,5-c]pyridazin-6-yl)methyl]piperidin-4-yl}pyridin-2-yl)oxy]methyl}benzonitrile] |
| 0.41 | C[C@H]1CN(c2ccc(F)c(OCc3ccc(Cl)cc3F)c2)CCN1Cc1nc2cc(-c3nnc(C(F)(F)F)[nH]3)nnc2n1C[C@@H]1CCO1 [Compound 518a, (2S)-4-{3-[(4-chloro-2-fluorophenyl)methoxy]-4-fluorophenyl}-2-methyl-1-[(7-{[(2S)-oxetan-2-yl]methyl}-3-[5-(trifluoromethyl)-4H-1,2,4-triazol-3-yl]-7H-imidazo[4,5-c]pyridazin-6-yl)methyl]piperazine] |
| 0.04 | C[C@H]1CN(c2cccc(OCc3ccc(Cl)cc3F)n2)CCN1Cc1nc2cc(-c3nnc(C(F)(F)F)[nH]3)nnc2n1C[C@@H]1CCO1 [Compound 519a, (2S)-4-{6-[(4-chloro-2-fluorophenyl)methoxy]pyridin-2-yl}-2-methyl-1-[(7-{[(2S)-oxetan-2-yl]methyl}-3-[5-(trifluoromethyl)-4H-1,2,4-triazol-3-yl]-7H-imidazo[4,5-c]pyridazin-6-yl)methyl]piperazine] |
| 0.34 | Fc1cc(Cl)ccc1COc1cc(C2CCN(Cc3nc4cc(-c5nnc(C(F)(F)F)[nH]5)nnc4n3C[C@@H]3CCO3)CC2)ccc1F [Compound 520a, 4-{3-[(4-chloro-2-fluorophenyl)methoxy]-4-fluorophenyl}-1-[(7-{[(2S)-oxetan-2-yl]methyl}-3-[5-(trifluoromethyl)-4H-1,2,4-triazol-3-yl]-7H-imidazo[4,5-c]pyridazin-6-yl)methyl]piperidine] |
